In patent US9896445B2, “Heterocyclic inhibitors of ERK1 and ERK2 and their use in the treatment of cancer” (Asana Biosciences, LLC, priority 2015, dated 2018):
pIC50: −log10 of the molar value. Where two headings read alike, the source gives them in different places.

Columns and labels:
ERK2 = target: T1, ERK2 (Homo sapiens, UniProt P28482); assay: ERK2 HTRF (biochemical) assay; conditions: HTRF
T1 construct: purchased Jubilant Biosys
Procedure, shortened: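 Readout was time-resolved FRET between europium anti-phospho-MBP and streptavidin-APC after a 60-min room-temperature kinase step. That step used ERK2 (25 nM in enzyme mix), biotinylated MBP peptide (1 uM) and ATP (24 uM) from the substrate mix, in pH 7.5 Tris buffer.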

[1] = system: human melanoma xenograft model (A375) harboring B-RAF V600E mutation; assay: A375 human melanoma xenograft model, tumor growth inhibition; format: in vivo, mice
Description: (§1) In Vivo Studies in Tumor Xenograft Models
(§2) Tumor Cell Implantation and Randomization of Animals
(§3) Foxn1 nu/nu strain of female mice (obtained from Charles River Laboratories, USA), 8-10 weeks of age, body weight range 23-25 g, were used for the tumor xenograft efficacy studies. Human cancer cell lines (such as melanoma A375, colorectal HT29, pancreatic BxPC3, colorectal HCT116, and lung A549) were first grown in vitro, and then about five million (5×10^6) of these cells in 100 μL of serum free medium were mixed with an equal amount of matrigel, and the entire mixture was injected subcutaneously at the right flank region of mice. The tumors were measured with Vernier calipers periodically after the first week of injection. When the tumor volume reached 120-150 mm^3 (about 3-4 weeks after injection) the animals were randomized into different groups so that their tumor volume was approximately the same in all groups.
(§4) Determination of In Vivo Efficacy of Tumor Growth Inhibition
(§5) For PO dosing, the compounds were prepared in a formulation containing 0.5% Methyl cellulose and 0.01% Tween 80. For IV, SC, or IP dosing, the compounds were prepared in 6% solutol-ethanol (1:1), 6% DMSO and 88% saline. Animals were dosed with compounds prepared in specific formulations via PO, IP or SC route either QD or BID at the required doses. Tumors size and body weights were measured twice or thrice in a week. Tumors were harvested at the end of the study after euthanizing the animals according to approved protocols. […]
(§6) Changes in tumor volume (Δ volumes) for each treated (T) and control (C) group were calculated by subtracting the mean tumor volume on the first day of treatment (starting day) from the mean tumor volume on the specified observation day. […]
(§7) Percentage tumor growth inhibition was calculated as [100−% T/C]. Percentage body weight change was calculated as [(Body weight on specified observation day−Body weight on starting day)/Body weight on starting day]×100.

ERK1 = target: T2, ERK1 (Homo sapiens, UniProt P27361); assay: ERK1 HTRF (biochemical) assay; conditions: HTRF
T2 construct: purchased Jubilant Biosys
Description: ERK1 and ERK2 HTRF (Biochemical) Assays
These assays employed a homogeneous time resolved fluorescence (HTRF) technique. […] The plate was incubated at room temperature for 60 min with shaking. […] The IC50 values (half maximal inhibitory concentration values) were subsequently determined using a sigmoidal dose-response curve (variable slope) in GraphPad Prism® 5 software.

[2] = system: human colon cancer xenograft model (HCT116; harboring KRAS mutation); assay: HCT116 human colon cancer xenograft model, tumor growth inhibition; format: in vivo, mice; conditions: 50 mg/kg BID orally for 24 days
Description: as §1, §2
as §3, with “When the tumor volume reached 120-150 mm^3 (about 3-4 weeks after injection) the animals were randomized into different groups so that their tumor volume was approximately the same in all groups.” left out
(§8) For PO dosing, the compounds were prepared in a formulation containing 0.5% Methyl cellulose and 0.01% Tween 80. […] Tumors size and body weights were measured twice or thrice in a week. […]
as §6, §7

[3] = system: HCT116 (colorectal carcinoma, K Ras G13D) cells; assay: Cell proliferation (Alamar Blue) assay, HCT116; format: cell-based, human
Description: (§9) Cell Proliferation (Alamar Blue) Assay
(§10) HT-29 (colorectal carcinoma, B-RafV600E), HCT116 (colorectal carcinoma, K Ras G13D), A375 (melanoma, B-RafV600E) and SK-Mel2 (melanoma, NRAS Q61R) cells (obtained from ATCC, USA) were seeded (5000 cells/well) in 96-well tissue culture plate and incubated at 37° C./5% CO2 for 16-24 hours. The cells were then treated with compounds, at concentrations typically from 0.0005 to 10 uM prepared in 3-fold serial dilutions. The plates were then incubated for 72 h at 37° C./5% CO2 in a moist environment. Then Alamar Blue™ reagent (final concentration 1×) was added to each well and incubated for 1-3 h at 37° C./5% CO2. The plates were read on fluorescence reader at 540 nm excitation and 590 nm emission wavelengths. The IC50 values were subsequently determined using a sigmoidal dose-response curve (variable slope) using GraphPad Prism® 5 software.

[4] = system: phospho-RSK (the downstream target of ERK1/2); assay: Pharmacodynamic assay, phospho-RSK in A375 tumor samples; format: in vivo, mice; conditions: A375 tumor samples harvested at 1 h after dosing at 50 mg/kg PO, compared to vehicle control
Description: as §3, §5

[5] = system: human colon cancer xenograft model (HT-29) harboring B-RAF V600E mutation; assay: HT-29 human colon cancer xenograft model, tumor growth inhibition; format: in vivo, mice; conditions: HT-29 xenograft
Description: as §1, §2
as §3, with “When the tumor volume reached 120-150 mm^3 (about 3-4 weeks after injection) the animals were randomized into different groups so that their tumor volume was approximately the same in all groups.” left out
as §8, §6, §7

[6] = system: human pancreatic carcinoma xenograft model, BxPC3 (wild type KRAS); assay: BxPC3 human pancreatic carcinoma xenograft model, tumor growth inhibition; format: in vivo, mice
Description: as §1, §2
as §3, with “When the tumor volume reached 120-150 mm^3 (about 3-4 weeks after injection) the animals were randomized into different groups so that their tumor volume was approximately the same in all groups.” left out
as §8, §6, §7

phospho-RSK1(S380) = assay: Phospho-RSK1(S380) ELISA assay in HT-29 cells; format: cell-based, human; conditions: read-out: Mechanist Cell Assay RSK1 Phos HT29 IC50
Description: Phospho-RSK1(S380) ELISA Assay
HT-29 cells (colorectal carcinoma, B-RafV600E); obtained from ATCC, USA) were seeded (60,000 cells/well) in a 96-well plate and incubated at 37° C./5% CO2 overnight and then treated with desired compound dilutions for 2 h. Medium was removed and cells were rinsed once with ice-cold 1×PBS, then 0.070 mL ice-cold 1× cell lysis buffer containing 1 mM PMSF was added to each well and the plate was incubated on a shaker for 2 h and 30 min at 4° C. The plate was then centrifuged for 20 min (×4000 rpm) at 4° C. and the supernatant was transferred to a new plate. Cell lysates were diluted with sample diluent at a ratio of 1:1. The ELISA was then carried out following the manufacturer's protocol (PathScan® phospho-RSK1(Ser380) Sandwich ELISA Kit, Cell Signaling Technologies). The plate was read at 450 nm within 30 min after adding STOP solution. The IC50 values were subsequently determined using a sigmoidal dose-response curve (variable slope) in GraphPad Prism® 5 software.

[7] = system: HT-29 (colorectal carcinoma, B-RafV600E) cells; assay: Cell proliferation (Alamar Blue) assay, HT-29; format: cell-based, human; conditions: HT29 cells
Description: as §9, §10

[8] = system: human lung carcinoma xenograft model (A549; harboring KRAS mutation); assay: A549 human lung carcinoma xenograft model, tumor growth inhibition; format: in vivo, mice; conditions: 50 mg/kg BID orally for 20 days
Description: as §1, §2, §3, §4, §5, §6, §7

[9] = 50 mg/kg BID orally for 19 days
[10] = Homo sapiens, HCT-116, HCT116 cells

T2 sequence (P27361 whole entry): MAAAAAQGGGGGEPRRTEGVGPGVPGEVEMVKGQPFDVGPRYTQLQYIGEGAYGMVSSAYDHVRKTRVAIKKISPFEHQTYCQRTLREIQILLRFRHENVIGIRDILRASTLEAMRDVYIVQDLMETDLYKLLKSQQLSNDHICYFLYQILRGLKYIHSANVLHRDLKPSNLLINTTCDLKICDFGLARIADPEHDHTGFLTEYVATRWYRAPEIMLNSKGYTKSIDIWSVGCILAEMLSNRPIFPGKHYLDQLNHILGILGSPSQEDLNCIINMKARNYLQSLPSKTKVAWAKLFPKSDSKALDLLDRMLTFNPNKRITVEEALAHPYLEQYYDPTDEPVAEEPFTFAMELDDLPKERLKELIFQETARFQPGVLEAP
T1 sequence (P28482 whole entry): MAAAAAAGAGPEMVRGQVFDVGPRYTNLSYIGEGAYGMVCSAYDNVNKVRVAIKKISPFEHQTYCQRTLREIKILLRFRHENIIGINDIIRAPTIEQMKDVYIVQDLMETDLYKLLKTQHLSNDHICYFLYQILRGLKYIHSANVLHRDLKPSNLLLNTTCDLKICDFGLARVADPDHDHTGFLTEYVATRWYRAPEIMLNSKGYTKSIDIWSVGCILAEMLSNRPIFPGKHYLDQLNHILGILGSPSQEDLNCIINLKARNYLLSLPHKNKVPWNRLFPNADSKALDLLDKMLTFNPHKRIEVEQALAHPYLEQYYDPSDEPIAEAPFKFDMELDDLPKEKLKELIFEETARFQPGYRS

## Cc1cnc(NC2CCOCC2)nc1-n1cnc(C(=O)N[C@H](CN)c2cccc(Cl)c2)c1 (single isomer, unassigned) [Compound 225a]
ERK2
  pIC50: ≥ 7.30
[1]; [9]
  body weight loss: no significant body weight loss
ERK1
  pIC50: > 7.30
[2]
  body weight loss: no significant body weight loss

## Cc1cnc(Nc2ccc(F)cc2)cc1-n1cnc(C(=O)NC(CN)c2ccccc2)c1 (single isomer, unassigned) [Compound 227, N-(2-amino-1-phenylethyl)-1-(2-((4-fluorophenyl)-amino)-5-methyl-pyridin-4-yl)-1H-imidazole-4-carboxamide]
ERK2
  pIC50: ≥ 7.30
[3]; [10]
  pIC50: < 5.60
ERK1
  pIC50: > 7.30

## Cc1cnc(NC2CCOCC2)nc1-n1cnc(C(=O)NC(CO)c2cccc(Cl)c2)c1 (stereo not shown) [Compound 201, N-(1-(3-chlorophenyl)-2-hydroxyethyl)-1-(5-methyl-2-((tetrahydro-2H-pyran-4-yl)amino)pyrimidin-4-yl)-1H-imidazole-4-carboxamide]
ERK2
  pIC50: ≥ 7.30
[4]
  inhibition of phospho-RSK: about 66%
[5]; 50 mg/kg BID orally for 20 days
  body weight loss: no significant body weight loss
[5]; dosed orally at 50 mg/kg BID for 20 days
  tumor growth inhibition: approximately 50%
[6]; 50 mg/kg BID orally for 25 days
  body weight loss: no significant body weight loss
[6]; dosed orally at 50 mg/kg BID for 25 days
  tumor growth inhibition: about 63%
ERK1
  pIC50: > 7.30

## Cc1cnc(NC2CCOCC2)nc1-n1cnc(C(=O)N[C@H](CO)c2cccc(Cl)c2)c1 [Compound 211, (S)-N-(1-(3-chlorophenyl)-2-hydroxyethyl)-1-(5-methyl-2-((tetrahydro-2H-pyran-4-yl)amino)pyrimidin-4-yl)-1H-imidazole-4-carboxamide]
ERK2
  pIC50: ≥ 7.30
[1]; 50 mg/kg BID orally for 17 days
  body weight loss: no significant body weight loss
[4]
  inhibition of phospho-RSK: ~84%
ERK1
  pIC50: > 7.30
other
  melting point: 145 °C

## Cc1cnc(NC2CCOCC2)nc1-n1cnc(C(=O)NC(CN)c2cc(F)cc(Cl)c2)c1 (stereo not shown) [Compound 236, N-(2-amino-1-(3-chloro-5-fluoro-phenyl)ethyl)-1-(5-methyl-2-((tetrahydro-2H-pyran-4-yl)amino)-pyrimidin-4-yl)-1H-imidazole-4-carboxamide]
phospho-RSK1(S380); HT29 cells
  pIC50: ≥ 7.00
[3]; HCT116 cells
  pIC50: ≥ 7.00
[7]
  pIC50: ≥ 7.00

## Cc1cnc(NC2CCOCC2)nc1-n1cnc(C(=O)N[C@]2(c3cccc(Cl)c3)C[C@H](O)C2)c1 [Compound 245, N-((1s,3s)-1-(3-chlorophenyl)-3-hydroxycyclobutyl)-1-(5-methyl-2-((tetrahydro-2H-4-yl)amino)pyrimidin-4-yl)-1H-imidazole-4-carboxamide]
ERK2
  pIC50: ≥ 7.30
phospho-RSK1(S380); Homo sapiens, HT-29, HT29 cells
  pIC50: 6.30 to 6.60
[3]; [10]
  pIC50: 5.60 to 6.30
ERK1
  pIC50: > 7.30

## Cc1cnc(NC2CC(F)(F)C2)nc1-n1cnc(C(=O)N[C@H](CN)c2cccc(Cl)c2)c1 [Example 259, (S)-N-(2-amino-1-(3-chlorophenyl)-ethyl)-1-(2-((3,3-difluorocyclobutyl)amino)-5-methyl-pyrimidin-4-yl)-1H-imidazole-4-carboxamide]
[1]; [9]
  body weight loss: no significant body weight loss
[2]
  body weight loss: no significant body weight loss

## Cc1cnc(NC2CCOCC2)nc1-n1cnc(C(=O)N[C@H](CN)c2cccc(Cl)c2)c1.O=S(=O)(O)c1ccccc1 [Example 300, (S)-N-(2-amino-1-(3-chlorophenyl)-ethyl)-1-(5-methyl-2-((tetrahydro-2H-pyran-4-yl)amino)-pyrimidin-4-yl)-1H-imidazole-4-carboxamide benzenesulfonic acid salt]
[8]
  body weight loss: no significant body weight loss

## Cc1cnc(NC2CCOCC2)nc1-n1cnc(C(=O)N[C@H](CN)c2cc(F)cc(Cl)c2)c1.O=S(=O)(O)c1ccccc1 [Example 302, (S)-N-(2-amino-1-(3-chloro-5-fluoro-phenyl)ethyl)-1-(5-methyl-2-((tetrahydro-2H-pyran-4-yl)amino)-pyrimidin-4-yl)-1H-imidazole-4-carboxamide benzenesulfonic acid salt]
[8]
  body weight loss: no significant body weight loss

## Cc1cnc(NC2CC(F)(F)C2)nc1-n1cnc(C(=O)N[C@H](CN)c2cccc(Cl)c2)c1.O=S(=O)(O)c1ccccc1 [Example 304, (S)-N-(2-amino-1-(3-chlorophenyl)-ethyl)-1-(2-((3,3-difluorocyclobutyl)amino)-5-methyl-pyrimidin-4-yl)-1H-imidazole-4-carboxamide benzenesulfonic acid salt]
[8]
  body weight loss: no significant body weight loss
